Values joined by “and” are separate entries in the source; they are usually repeats but may differ in a detail not shown here. Identical values can stand only once.
Assays:
[1] = target: T1, Plasmodium falciparum protein kinase 6 (PK6) (Plasmodium falciparum, UniProt Q8IDW1); experiment: biochemical; conditions: hits below 1 uM; read-out: PK6 IC50
T1 construct: 6-Histidine (N); made in house
T1 sequence (Q8IDW1 1-305): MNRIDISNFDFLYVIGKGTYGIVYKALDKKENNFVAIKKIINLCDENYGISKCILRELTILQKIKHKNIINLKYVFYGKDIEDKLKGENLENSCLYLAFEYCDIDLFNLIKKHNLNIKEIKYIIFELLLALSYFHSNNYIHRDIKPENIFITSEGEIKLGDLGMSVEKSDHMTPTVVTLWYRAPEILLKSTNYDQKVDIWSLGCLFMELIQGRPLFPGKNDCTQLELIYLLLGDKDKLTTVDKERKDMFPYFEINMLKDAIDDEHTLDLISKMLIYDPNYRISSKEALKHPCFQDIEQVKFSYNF

3D7 PFLDH = tested on: 3D7 PFLDH; parameters: method as in F.J. Gamo et al., Nature 2010; concentration or dose not given beside the values; conditions: downloaded from ChEMBL, ref F.J. Gamo et al., Nature 2010; cited from earlier work
IKBKE [2] = target: T2, IKBKE (Homo sapiens, UniProt Q14164); experiment: biochemical
T2 sequence (Q14164 1-716): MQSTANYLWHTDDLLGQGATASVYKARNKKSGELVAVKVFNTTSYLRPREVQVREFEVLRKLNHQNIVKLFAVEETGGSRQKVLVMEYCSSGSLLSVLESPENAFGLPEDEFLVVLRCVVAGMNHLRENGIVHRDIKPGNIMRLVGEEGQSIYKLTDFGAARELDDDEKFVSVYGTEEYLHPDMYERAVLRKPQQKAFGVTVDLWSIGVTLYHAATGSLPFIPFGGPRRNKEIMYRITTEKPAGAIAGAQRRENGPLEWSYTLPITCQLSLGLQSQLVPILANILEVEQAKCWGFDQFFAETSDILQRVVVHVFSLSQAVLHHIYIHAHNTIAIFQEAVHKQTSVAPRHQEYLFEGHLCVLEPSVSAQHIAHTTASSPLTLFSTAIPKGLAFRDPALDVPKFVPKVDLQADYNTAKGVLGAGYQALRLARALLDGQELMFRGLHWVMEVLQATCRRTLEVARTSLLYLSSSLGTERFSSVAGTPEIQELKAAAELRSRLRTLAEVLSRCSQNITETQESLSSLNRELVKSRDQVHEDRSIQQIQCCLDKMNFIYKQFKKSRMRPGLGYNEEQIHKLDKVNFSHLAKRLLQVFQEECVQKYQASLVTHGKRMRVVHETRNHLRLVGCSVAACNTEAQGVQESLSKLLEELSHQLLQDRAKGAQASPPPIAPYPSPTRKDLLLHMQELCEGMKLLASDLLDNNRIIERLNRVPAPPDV

CDK5 = CDK5 (Homo sapiens, UniProt Q00535); experiment: biochemical; parameters: endogenous in cells; host or cells: K562 cell extract; species or system K562 (extract); replicate k of n = 2 (each experiment ID is one independent experiment; two experiment IDs per compound); conditions: read-out: KDapp
IKBKE [3] = target: T2, IKBKE; experiment: biochemical; parameters: endogenous in cells; host or cells: K562 cell extract; species or system K562 (extract); replicate k of n = 2 (each experiment ID is one independent experiment; two experiment IDs per compound); conditions: read-out: KDapp
IRAK1 = IRAK1 (Homo sapiens, UniProt P51617); experiment: biochemical; parameters: endogenous in cells; host or cells: K562 cell extract; species or system K562 (extract); replicate k of n = 2 (each experiment ID is one independent experiment; two experiment IDs per compound); conditions: read-out: KDapp
LIMK1 = LIMK1 (Homo sapiens, UniProt P53667); experiment: biochemical; parameters: endogenous in cells; host or cells: K562 cell extract; species or system K562 (extract); replicate k of n = 2 (each experiment ID is one independent experiment; two experiment IDs per compound); conditions: read-out: KDapp
PDPK1 = target: T3, PDPK1 (Homo sapiens, UniProt O15530); experiment: biochemical; parameters: endogenous in cells; host or cells: K562 cell extract; species or system K562 (extract); replicate k of n = 2 (each experiment ID is one independent experiment; two experiment IDs per compound); conditions: read-out: KDapp
T3 sequence (O15530 1-556): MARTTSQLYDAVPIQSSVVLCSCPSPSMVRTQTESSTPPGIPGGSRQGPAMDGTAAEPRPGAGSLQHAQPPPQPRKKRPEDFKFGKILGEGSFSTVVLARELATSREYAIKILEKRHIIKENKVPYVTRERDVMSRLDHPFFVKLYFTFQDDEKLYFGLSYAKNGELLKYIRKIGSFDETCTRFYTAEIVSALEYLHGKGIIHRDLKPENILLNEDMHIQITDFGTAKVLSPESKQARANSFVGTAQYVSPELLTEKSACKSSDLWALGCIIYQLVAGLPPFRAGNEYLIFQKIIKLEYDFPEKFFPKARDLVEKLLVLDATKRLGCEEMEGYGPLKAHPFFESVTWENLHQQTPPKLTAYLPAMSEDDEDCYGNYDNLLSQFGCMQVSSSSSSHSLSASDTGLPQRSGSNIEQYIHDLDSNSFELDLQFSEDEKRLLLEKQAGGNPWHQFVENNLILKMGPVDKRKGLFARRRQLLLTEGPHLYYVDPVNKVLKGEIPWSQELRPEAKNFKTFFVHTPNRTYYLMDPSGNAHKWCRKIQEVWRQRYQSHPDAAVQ

PIK3R4 = PIK3R4 (Homo sapiens, UniProt Q99570); experiment: biochemical; parameters: endogenous in cells; host or cells: K562 cell extract; species or system K562 (extract); replicate k of n = 2 (each experiment ID is one independent experiment; two experiment IDs per compound); conditions: read-out: KDapp
RPS6KA1 = RPS6KA1 (Homo sapiens, UniProt Q15418); experiment: biochemical; parameters: endogenous in cells; host or cells: K562 cell extract; species or system K562 (extract); replicate k of n = 2 (each experiment ID is one independent experiment; two experiment IDs per compound); conditions: read-out: KDapp
Sequence of RPS6KA1 (Q15418 whole entry): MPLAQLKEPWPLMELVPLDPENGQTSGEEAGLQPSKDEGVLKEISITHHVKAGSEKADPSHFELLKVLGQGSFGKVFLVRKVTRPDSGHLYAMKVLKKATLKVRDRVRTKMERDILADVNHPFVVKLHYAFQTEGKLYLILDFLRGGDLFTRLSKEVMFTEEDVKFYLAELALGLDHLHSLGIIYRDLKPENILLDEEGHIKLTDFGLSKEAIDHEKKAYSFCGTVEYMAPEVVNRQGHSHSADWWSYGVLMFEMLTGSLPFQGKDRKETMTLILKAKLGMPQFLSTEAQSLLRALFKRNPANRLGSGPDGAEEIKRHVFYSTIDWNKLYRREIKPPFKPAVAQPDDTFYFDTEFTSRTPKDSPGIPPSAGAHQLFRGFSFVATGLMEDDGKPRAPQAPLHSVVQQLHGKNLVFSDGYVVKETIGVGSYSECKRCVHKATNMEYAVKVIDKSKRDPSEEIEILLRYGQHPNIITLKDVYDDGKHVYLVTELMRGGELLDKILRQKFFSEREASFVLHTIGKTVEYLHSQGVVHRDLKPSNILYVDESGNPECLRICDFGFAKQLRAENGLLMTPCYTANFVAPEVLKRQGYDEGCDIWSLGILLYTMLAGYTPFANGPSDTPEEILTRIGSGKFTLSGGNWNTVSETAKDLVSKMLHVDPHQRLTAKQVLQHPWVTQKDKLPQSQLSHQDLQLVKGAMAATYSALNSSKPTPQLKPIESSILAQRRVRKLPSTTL

Sequence of CDK5 (Q00535 whole entry): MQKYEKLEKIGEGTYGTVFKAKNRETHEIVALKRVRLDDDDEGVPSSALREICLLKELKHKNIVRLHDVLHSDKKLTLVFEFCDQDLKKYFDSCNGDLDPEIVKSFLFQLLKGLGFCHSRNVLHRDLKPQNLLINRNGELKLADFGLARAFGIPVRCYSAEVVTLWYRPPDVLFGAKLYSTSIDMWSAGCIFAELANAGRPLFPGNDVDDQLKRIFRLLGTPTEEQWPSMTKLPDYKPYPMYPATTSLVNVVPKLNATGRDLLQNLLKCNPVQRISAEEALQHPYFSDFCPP
Sequence of IRAK1 (P51617 whole entry): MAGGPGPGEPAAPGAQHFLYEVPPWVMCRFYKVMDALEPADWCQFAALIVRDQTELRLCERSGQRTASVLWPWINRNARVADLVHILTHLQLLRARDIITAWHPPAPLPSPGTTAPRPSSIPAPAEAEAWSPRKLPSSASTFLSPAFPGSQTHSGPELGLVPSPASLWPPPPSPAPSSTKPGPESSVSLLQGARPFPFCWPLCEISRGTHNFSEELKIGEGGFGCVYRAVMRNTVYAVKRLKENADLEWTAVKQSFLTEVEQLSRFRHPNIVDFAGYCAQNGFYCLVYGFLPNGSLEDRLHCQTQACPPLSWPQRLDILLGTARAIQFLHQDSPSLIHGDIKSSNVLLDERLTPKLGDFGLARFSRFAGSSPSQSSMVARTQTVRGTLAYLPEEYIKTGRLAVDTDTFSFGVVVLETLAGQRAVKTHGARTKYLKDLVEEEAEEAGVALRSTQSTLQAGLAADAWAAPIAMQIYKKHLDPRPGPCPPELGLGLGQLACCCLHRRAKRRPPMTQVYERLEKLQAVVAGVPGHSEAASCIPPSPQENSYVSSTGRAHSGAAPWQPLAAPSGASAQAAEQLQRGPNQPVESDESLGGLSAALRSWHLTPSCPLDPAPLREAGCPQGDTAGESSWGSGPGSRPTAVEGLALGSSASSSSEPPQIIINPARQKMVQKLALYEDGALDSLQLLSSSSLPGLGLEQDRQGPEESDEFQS
Sequence of LIMK1 (P53667 whole entry): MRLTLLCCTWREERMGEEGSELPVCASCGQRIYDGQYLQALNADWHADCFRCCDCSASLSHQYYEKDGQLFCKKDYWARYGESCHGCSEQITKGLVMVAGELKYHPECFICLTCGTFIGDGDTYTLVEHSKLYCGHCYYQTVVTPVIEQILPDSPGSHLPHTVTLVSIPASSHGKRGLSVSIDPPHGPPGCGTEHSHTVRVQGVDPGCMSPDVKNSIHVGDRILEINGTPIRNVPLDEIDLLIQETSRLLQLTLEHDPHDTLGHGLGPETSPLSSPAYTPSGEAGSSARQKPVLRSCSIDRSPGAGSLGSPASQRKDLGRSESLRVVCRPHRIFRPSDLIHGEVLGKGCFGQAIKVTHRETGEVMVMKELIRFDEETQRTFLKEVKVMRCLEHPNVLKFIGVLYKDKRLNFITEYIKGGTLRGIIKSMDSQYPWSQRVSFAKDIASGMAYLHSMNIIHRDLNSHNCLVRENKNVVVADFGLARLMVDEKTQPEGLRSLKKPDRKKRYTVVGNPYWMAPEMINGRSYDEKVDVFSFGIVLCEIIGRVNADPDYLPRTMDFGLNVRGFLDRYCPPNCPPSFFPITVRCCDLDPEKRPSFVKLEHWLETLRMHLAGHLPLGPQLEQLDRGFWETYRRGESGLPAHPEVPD
Sequence of PIK3R4 (Q99570 whole entry): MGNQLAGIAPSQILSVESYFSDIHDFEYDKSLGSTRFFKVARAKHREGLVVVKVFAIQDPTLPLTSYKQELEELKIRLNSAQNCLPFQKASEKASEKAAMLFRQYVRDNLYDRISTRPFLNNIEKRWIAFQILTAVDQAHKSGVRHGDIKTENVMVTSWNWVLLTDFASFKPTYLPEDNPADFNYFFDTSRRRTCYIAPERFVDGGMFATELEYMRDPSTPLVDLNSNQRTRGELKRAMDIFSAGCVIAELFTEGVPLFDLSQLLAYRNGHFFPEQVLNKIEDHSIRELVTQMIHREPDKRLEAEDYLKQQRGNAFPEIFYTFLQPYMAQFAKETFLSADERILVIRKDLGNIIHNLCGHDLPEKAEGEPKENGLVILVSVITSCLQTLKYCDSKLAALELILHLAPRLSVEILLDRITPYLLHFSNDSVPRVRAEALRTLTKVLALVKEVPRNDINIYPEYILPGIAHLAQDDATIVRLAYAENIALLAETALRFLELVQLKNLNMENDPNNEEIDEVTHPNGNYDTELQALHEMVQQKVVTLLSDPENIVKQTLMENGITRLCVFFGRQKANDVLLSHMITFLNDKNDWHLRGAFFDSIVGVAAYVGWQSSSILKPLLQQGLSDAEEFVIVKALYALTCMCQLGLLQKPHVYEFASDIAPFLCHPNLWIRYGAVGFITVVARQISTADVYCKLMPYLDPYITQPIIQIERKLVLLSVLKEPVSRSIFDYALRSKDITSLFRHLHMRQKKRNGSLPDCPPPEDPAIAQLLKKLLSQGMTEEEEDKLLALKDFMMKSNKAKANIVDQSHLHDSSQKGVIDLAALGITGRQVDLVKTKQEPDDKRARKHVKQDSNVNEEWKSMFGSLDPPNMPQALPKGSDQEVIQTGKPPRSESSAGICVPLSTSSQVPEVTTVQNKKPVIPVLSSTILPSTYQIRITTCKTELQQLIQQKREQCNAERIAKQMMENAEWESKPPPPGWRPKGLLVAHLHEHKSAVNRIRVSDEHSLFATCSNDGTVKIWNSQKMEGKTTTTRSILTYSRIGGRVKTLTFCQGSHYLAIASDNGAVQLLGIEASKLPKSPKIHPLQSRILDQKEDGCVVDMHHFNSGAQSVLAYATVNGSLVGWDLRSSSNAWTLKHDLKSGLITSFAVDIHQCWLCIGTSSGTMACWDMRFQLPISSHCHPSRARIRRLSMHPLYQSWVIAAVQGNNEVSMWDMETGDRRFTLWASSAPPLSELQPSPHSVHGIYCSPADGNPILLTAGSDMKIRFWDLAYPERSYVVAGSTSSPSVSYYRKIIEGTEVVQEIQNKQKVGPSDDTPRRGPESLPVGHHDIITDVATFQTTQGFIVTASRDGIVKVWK

SMILES	IC50 [1]	PCT_INHIB_3D7_PFLDH (3D7 PFLDH)	IC50 (IKBKE [2])	Kd (CDK5)	Kd (IKBKE [3])	Kd (IRAK1)	Kd (LIMK1)	Kd (PDPK1)	Kd (PIK3R4)	Kd (RPS6KA1)
CN1CCN(c2ccc(Nc3ncc(C#N)c(Nc4ccccc4C(N)=O)n3)cc2)CC1.Cl [TCMDC-134116]	89 nM	0%	1800 nM	40.5 nM and 66.5 nM	954 nM	92.9 nM and 81.3 nM	121 nM	605 nM and 503 nM	1840 nM	96 nM
CN(C)CC(O)COc1ccc(Nc2ncc([N+](=O)[O-])c(Nc3ccccc3O)n2)cc1.O=C(O)C(F)(F)F (stereo not drawn) [TCMDC-141399]	67 nM	–	> 20000 nM	–	–	–	–	–	–	–

From article PMC4774911, “Biochemical Screening of Five Protein Kinases from Plasmodium falciparum against 14,000 Cell-Active Compounds” (PLoS ONE, 2016)
